This experiment deals with CEM cells HIV-1 protection, formazan growth assay. The experiment is described as follows: NCI AIDS Antiviral Assay. Conditions: for pIC50: measured here: growth of uninfected CEM cells. In outline:
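Human CEM cells, uninfected and HIV-1-infected, exposed to five drug concentrations; growth measured by soluble formazan assay and scored as percent protection from infection, with protecting compounds retested.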

Usually pEC50 stands for the negative decadic logarithm of the EC50, by convention in mol/L. As usually defined, the pIC50 is −log10 of the IC50, conventionally taken in molar units. A lower pIC50 goes with a large IC50.

pEC50, pIC50: −log10 of the molar value. Calls of active or inactive are those of the source.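 The calls were made as follows: active = compounds giving half or more protection of infected cells from virus-caused growth loss, again on retest; inactive = the rest.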

With `Cc1cc(Sc2cc(C)c(O)c(C(C)(C)C)c2)cc(C(C)(C)C)c1O`, the pEC50 is less than 3.70 and the negative-log IC50 (pIC50) is 4.80. For `C=C(C)C(=O)OC1C/C(CO)=C\C(O)C/C(C)=C/C2OC(=O)C(=C)C21` (configuration not stated), the pEC50 was less than 3.14 and the negative-log IC50 (pIC50) was 4.91. For `CCN1CCC(O)(/C=C/c2ccc(C)cc2C)C(C(=O)/C=C/c2ccc(C)cc2C)C1` (configuration not stated), in that order: less than 3.70 and 5.49. As for `N#CCCN(C1=NN(C(=O)CC(=O)Nc2ccc(Cl)cc2)C(c2ccccc2)C1)c1ccc(Cl)cc1` (configuration not stated), the pEC50 was less than 4.30 and the pIC50 was less than 4.30. For the molecule `CCC[CH2][Sn]([CH2]CCC)([O]C(=O)c1cc(OC)c(OC)cc1OC)[O][Sn]([CH2]CCC)([CH2]CCC)[O]C(=O)c1cc(OC)c(OC)cc1OC`, the pEC50 was less than 4.96 and the pIC50 was 6.52.

Regarding `COC(=O)Cc1cccc2c1CCC2=O`, the pEC50 is less than 3.70 and the pIC50 was less than 3.70.

`Clc1ccc(NC2=NCCCS2)c2ccccc12`: the pEC50 was less than 3.70 and the negative logarithm of the IC50 (pIC50) was 4.37. For `Nc1nc(Cl)cc(NCC2(CO)CC(OCc3ccccc3)C2)n1` (configuration not stated) the same measures were less than 3.70 and 5.22.

Turning to `Nc1ncnc2c1ncn2C1OC(CSCC(F)(F)F)C(O)C1O` (configuration not stated), the pEC50 is less than 3.16 and the negative logarithm of the IC50 (pIC50) was 3.61. For `CCN(CC)CCCNc1ccc([N+](=O)[O-])c2nc3ccccc3c(N)c12`, in that order: less than 3.70 and 6.67. For `CCCCCC/C=C\CCCCCCCCCc1c(O)c(OC)cc(O)c1CN(C)C` the same measures were less than 3.70 and 5.62. With `O=C(O)C1=NN(c2ccc(S(=O)(=O)O)cc2)C(=O)C1N=Nc1ccc(S(=O)(=O)O)cc1` (configuration not stated), the result was inactive.

Consider `O=S(Cc1ccccn1)c1nc2ccccc2nc1-c1ccccc1` (configuration not stated), for which the pEC50 was less than 4.54 and the negative-log IC50 (pIC50) was less than 4.54. With `CSc1nc(N)n(C(=O)c2ccccc2Br)n1`, the pEC50 is less than 3.38 and the pIC50 is less than 3.38. Take `CSC1=C(C#N)C(=O)N(c2ccc(Cl)cc2)C(=O)C1C#N` (configuration not stated): the pEC50 is less than 3.70 and the pIC50 was 3.87. Regarding `Clc1ccc(/C=N\N2CCCCCC2)c(Cl)c1`, the outcome was inactive. Same read-out and setting: to `COc1ccc2c(c1OC)C1N(C)CCc3cc4c(cc3C1(OC)C2=O)OCO4` (configuration not stated) belongs “inactive”. In the case of `CC(C)[Si](O[C@@H]1CCC[C@@]23O[C@@H]2CC2C(=O)c4c(O)cccc4C(=O)[C@@]2(O)[C@@H]13)(C(C)C)C(C)C` (some centres not stated), the pEC50 was less than 3.70 and the negative-log IC50 (pIC50) is 4.85.

On to `CN1CCC(O)(OC(=O)C(c2ccccc2)C2(O)CCCC2)CC1` (configuration not stated), for which the pEC50 is less than 3.70 and the negative logarithm of the IC50 (pIC50) was less than 3.70. Regarding `C=CCCC(C)N(C(=O)OC(C)(C)C)S(=O)(=O)c1ccc(C)cc1` (configuration not stated), the pEC50 was less than 4.83 and the pIC50 was less than 4.83. As to `Cc1cc(C)c2c(c1)C/C(=C\c1ccccc1C(=O)O)C2=O`, the result was inactive. On to `C=CCCCCCCCCC(=O)NCc1ccncc1`, for which the pEC50 was less than 3.70 and the pIC50 was 4.01. For `CCCCCC1CC2=C(C(=O)OC2=O)C(O)C(O)(CCCC)CC2=C1C(=O)OC2=O` (configuration not stated), in that order: less than 4.07 and less than 4.07. For `Cc1nc(NC(C)(CO)CO)nc2c1C(=O)Nc1ccccc1N2` the same measures were less than 3.70 and less than 3.70. With `COC(=O)[C@H](CCCN=C(N)N)NC(=O)CCCCCCCCCCNC(=O)c1cc(CNC2=NCCN2)cc(CNC2=NCCN2)c1`, the pEC50 is less than 4.00 and the pIC50 was less than 4.00. As to `N#Cc1nc(N)c(C#N)[nH]1`, the result was inactive. Still for that read-out and setting: to `CCCCCCCCCCN=Cc1c(O)c(O)c(CCC)c2cc(C)c(-c3c(C)cc4c(CCC)c(O)c(O)c(C=NCCCCCCCCCC)c4c3O)c(O)c12` belongs “inactive”. On to `O=C(Nc1ccccc1[N+](=O)[O-])/C(=N/Nc1cccc(Cl)c1)c1c(O)c2ccccc2oc1=O`, for which the pEC50 is less than 4.27 and the pIC50 is less than 4.27. Regarding `CC1(C)OC(=O)C(=Cc2cccc(Cl)c2)C(=O)O1`, the pEC50 is less than 3.31 and the pIC50 is less than 3.70.

For the molecule `Cc1ccc(NC(=O)CC(=O)n2nc(C)c(N=Nc3ccccc3C(=O)O)c2C)cc1`, the pEC50 was less than 3.37 and the pIC50 was less than 3.37. With `Cc1ccc(-c2cc(=S)n(-c3ccccc3)c3nc(=S)n(-c4ccccc4)c(N)c23)cc1`, the pEC50 is less than 3.70 and the negative logarithm of the IC50 (pIC50) was 3.86.

For `C/C=C/C=C\C(=O)C1c2cccc(O)c2C(=O)c2c(O)cc(C)cc21` (configuration not stated), the pEC50 is less than 4.67 and the negative-log IC50 (pIC50) is 5.41. `C[C@@]12[Se]c3ccccc3[C@]1(C)[Se]c1ccccc12`: the outcome was inactive.

With `COC1(OC)C2(Cl)C3=CCCC=C3C1(Cl)C(Cl)=C2Cl`, the outcome was inactive.

For `CN(CCc1ccccn1)/[N+]([O-])=N/O` (tested in a mixture with another compound), the pEC50 is less than 2.33 and the pIC50 was 2.46.

For `c1ccc(CNc2ccc3[nH]c4cnccc4c3c2)cc1`, the negative-log EC50 (pEC50) was less than 3.60 and the negative logarithm of the IC50 (pIC50) is 4.44. `CCCCCCCCCCCCCCCCN[Si](NCCCCCCCCCCCCCCCC)(NCCCCCCCCCCCCCCCC)NCCCCCCCCCCCCCCCC`: the pEC50 was less than 3.62 and the pIC50 was 3.86.

`Cc1c(Cc2ccccc2)n(C(C)OCCN(O)C(N)=O)c(=O)[nH]c1=O` (configuration not stated): the pEC50 is less than 3.70 and the pIC50 is less than 3.70. As for `C[N+]1(CCCCN2c3ccccc3Sc3cc(N=[N+]=[N-])ccc32)CCN(C(=O)CCNC(=O)Cc2ccc(C(=O)c3ccccc3)cc2)CC1`, the pEC50 is less than 4.00 and the negative logarithm of the IC50 (pIC50) is 4.81.

As for `CCOC(=O)C(NC(=O)CC)(Nc1ccc(S(=O)(=O)Nc2ncccn2)cc1)C(F)(F)F` (configuration not stated), the pEC50 is less than 3.70 and the pIC50 was less than 3.70.

With `CC(=O)OCC1OC(N2C(C)=C(C(C)=O)C(c3ccc(Cl)cc3)C(C#N)=C2S)C(OC(C)=O)C(OC(C)=O)C1OC(C)=O` (configuration not stated), the pEC50 was less than 3.70 and the pIC50 is 4.53. Regarding `Cc1ccc(/C=C(\C#N)C(=O)c2ccccc2)cc1`, the pEC50 was less than 3.84 and the pIC50 is 3.99.

As for `CCCCCCCCCCCCCCCc1nc(SCC(=O)O)n[nH]1`, the pEC50 was less than 5.41 and the pIC50 was less than 5.41.

Turning to `C/C(=N/NC(=S)N(C)CCc1ccccn1)c1cnccn1`, the pEC50 is less than 6.70 and the pIC50 was 7.75. For `COC(=O)c1cc2cc(OC)c(OC)cc2cc(C(=O)OC)c1=O` the same measures were less than 4.97 and less than 4.97.

`CC(=O)ON1C(=O)c2cccc3cccc(c23)C1=O`: the pEC50 was less than 3.70 and the negative-log IC50 (pIC50) was 4.73. As for `[N-]=[N+]=N[C@H]1C[C@@H](CO)O[C@H]1n1cnc2c(N)ncnc21`, the outcome was inactive.

Take `Cc1ccc(-c2c3nc(c(-c4ccc(C)cc4)c4ccc([nH]4)c(-c4ccc(C)cc4)c4nc(c(-c5ccncc5)c5ccc2[nH]5)C=C4)C=C3)cc1.Cc1ccc(-c2c3nc(c(-c4ccc(C)cc4)c4ccc([nH]4)c(-c4ccc(C)cc4)c4nc(c(-c5ccncc5)c5ccc2[nH]5)C=C4)C=C3)cc1.Cc1ccc(-c2c3nc(c(-c4ccc(C)cc4)c4ccc([nH]4)c(-c4ccc(C)cc4)c4nc(c(-c5ccncc5)c5ccc2[nH]5)C=C4)C=C3)cc1.Cc1ccc(-c2c3nc(c(-c4ccc(C)cc4)c4ccc([nH]4)c(-c4ccc(C)cc4)c4nc(c(-c5ccncc5)c5ccc2[nH]5)C=C4)C=C3)cc1.O=S(=O)([O-])C(F)(F)F.[Pt]`: the pEC50 was less than 4.60 and the pIC50 is 4.85. For `CCc1cccc(C)c1NC(=O)CC1C(=O)Nc2ccccc2S1(=O)=O` (configuration not stated), in that order: less than 5.00 and less than 5.00. Turning to `N=C(c1ccccc1)N(O)C1CCCCC1`, the outcome was inactive. Still for that read-out and setting: to `COC(=O)[C@]1(c2ccc(N(C)C)cc2OC)C[C@@H]2CCCN(CCc3c1[nH]c1ccccc31)C2` belongs “inactive”.

`NC(CSSCC(N)Cc1ccccc1)Cc1ccccc1` (configuration not stated): the pEC50 was less than 3.21 and the pIC50 was 4.69. Turning to `CC(=O)O[C@H]1CC[C@@]2(C)C(=CC[C@@H]3C2CC[C@@]2(C)C3CC[C@@H]2c2ncc(C)s2)C1` (some centres not stated), the pEC50 was less than 4.22 and the pIC50 is less than 4.22. Regarding `COc1ccc(N=NC(=O)NC(CC(C)C)C(=O)NC(CC(C)C)C(=O)O)cc1` (configuration not stated), the pEC50 was less than 3.70 and the negative-log IC50 (pIC50) is 5.14. For `O=[N+]([O-])C(=C/c1ccccc1)/C(=C\c1ccccc1)[N+](=O)[O-]`, the pEC50 is less than 3.70 and the pIC50 was 4.81. As to `COCCCC(=O)NC(c1ccccc1)(c1ccccc1)c1ccccc1`, the pEC50 was less than 3.70 and the pIC50 was less than 3.70. In the case of `Nc1ccc2c(c1)nc1n2C(c2c(F)cccc2F)SC1` (configuration not stated), the pEC50 is less than 3.70 and the negative logarithm of the IC50 (pIC50) was 3.87.

As for `C=C[Si](C)(C)COC(=O)/C(C#N)=C/C=C/c1ccccc1`, the pEC50 is less than 5.04 and the pIC50 was less than 5.04.

For `CN=C(Nc1cccc(C(F)(F)F)c1)SCc1ccc(N=C=S)cc1`, the outcome was inactive. On to `NC(=S=O)C(F)(F)C(F)(F)C(F)(F)F`, for which the negative logarithm of the EC50 (pEC50) is less than 3.98 and the pIC50 was 4.05. For the molecule `N#Cc1c(NCCc2ccc(F)cc2)c2ccccc2n2c1nc1ccccc12`, the pEC50 was 4.96 and the pIC50 was less than 3.70. With `O=P(O)(O)CN1CCN(CP(=O)(O)O)CCN(CP(=O)(O)O)CCN(CP(=O)(O)O)CC1`, the pEC50 was less than 4.00 and the negative-log IC50 (pIC50) was 4.69. For `CCOC(=O)CCC(NC(=O)c1ccc(Oc2nc3ccccc3nc2C(=O)OCC)cc1)C(=O)OCC` (configuration not stated), in that order: less than 3.70 and less than 3.70. For `Cc1ccnc(NC(=O)NC2CCCCC2)c1` the same measures were less than 3.70 and 3.84. For `O=C(CNc1nncs1)NO`, the pEC50 is less than 2.84 and the pIC50 is 3.79. Take `Nc1ccc(C(=O)NN2C(=O)C(Cl)C2c2ccccc2)cc1` (configuration not stated): the pEC50 is less than 3.70 and the pIC50 was 4.32. As to `CC(=O)Oc1ccc2cc(Oc3ccc(Cl)cc3)c(=O)oc2c1`, the pEC50 is less than 3.70 and the pIC50 was 4.08.

For the origin of these results see PubChem BioAssay AID179 (DTP/NCI, 2004).
